# Laboratory results from patent US20110230472A1, “RING-FUSED AZOLE DERIVATIVE HAVING PI3K-INHIBITING ACTIVITY” (Shionogi & Co., Ltd., priority 2008, published 2011).
# Key:
# PI-3 kinase γ [1] = biological target: T1, PI-3 kinase γ (Homo sapiens, UniProt P48736); assay: PI3Kγ inhibitory activity, PI3-kinase HTRF assay (inhibition ratio); type: biochemical; settings: 0.5 h; for inhibition at 50 µM: compound at 50 μM
# How it was run: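 Single-concentration inhibition ratio (50 or 10 μmol/L compound) versus no-compound (100%) and no-enzyme (0%) wells. Reaction: PI-3 kinase γ, PIP2, ATP, MgCl2/DTT, 30 min at RT after 10 min preincubation. Read-out: HTRF 665/620 nm after 18 h detection.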
# [2] = tested on: Salmonella typhimurium TA98 line, TA100 line; assay: FAT test (mutagenicity); parameters: key: When the mutagenicity is negative, the compound is shown as (−); When positive, the compound is shown as (+); settings: TA98 and TA100 lines; non-metabolism-activation and metabolism-activation conditions
# Description: 20 μL of Salmonella enterica subsp. typhimurium (Salmonella typhimurium TA98 line, TA100 line) cryopreserved was inoculated to 10 mL of liquid nutrient medium (2.5% Oxoid nutrient broth No. 2) and then precultured at 37° C. for 10 hours with shaking. Regarding TA98 line, after 9 mL of a bacterial suspension was centrifuged (2000×g, 10 minutes) to remove the culture solution, the bacteria was suspended in 9 mL of Micro F buffer solution (K2HPO4: 3.5 g/L, KH2PO4: 1 g/L, (NH4)2SO4: 1 g/L, tri-sodium citric acid dihydrate: 0.25 g/L, MgSO4.7H2O: 0.1 g/L), and then added to 110 mL of Exposure media (Micro F buffer solution containing biotin: 8 μg/mL, histidine: 0.2 μg/mL, glucose: 8 mg/mL). Regarding TA 100 line, 120 mL of Exposure media was added to 3.16 mL of the bacterial suspension to prepare a test bacterial suspension. 12 μL of a solution of a test substance in DMSO (diluted eight times in a common ratio of 2 from the maximum dose of 50 mg/mL); 12 μL of DMSO as a negative control; 50 μg/mL 4-nitroquinoline-1-oxide solution in DMSO for TA98 line or 0.25 μg/mL 2-(2-furyl)-3-(5-nitro-2-furyl)acrylamide solution in DMSO as a positive control for TA 100 line in the case of a non-metabolism-activation condition; 12 μL of 40 μg/mL 2-aminoanthracene solution in DMSO for TA98 line or 20 μg/mL of 2-aminoanthracene solution in DMSO for TA100 line in the case of a metabolism-activation condition; were each mixed with 588 μL of the test bacterial suspension (in the case of a metabolism activation condition, a mixed solution of 498 μL of the test bacterial suspension and 90 μL S9 mix) and then cultured at 37° C. at 90 minutes with shaking. 460 μL of the bacterial suspension to which a test substance was exposed was mixed with 230 μL of Indicator media (a Micro F buffer solution containing 8 μg/mL biotin, 0.2 μg/mL histidine, 8 mg/mL glucose, and 37.5 μg/mL bromocresol purple). 50 μL thereof was dispensed to microplate 48 wells/dose and then statically cultured at 37° C. for 3 days. In a well containing bacteria which obtained proliferation potency by mutation of the amino acid (histidine) synthetase gene, the change of pH caused the color change from purple to yellow. Thus, in 48 wells per dose, the number of the bacteria-proliferation wells in which the color changed to yellow was counted, compared with a group of negative controls, and then evaluated. When the mutagenicity is negative, the compound is shown as (−). When positive, the compound is shown as (+).
# CYP1A2 = biological target: T2, CYP1A2 (Homo sapiens, UniProt P05177); assay: CYP inhibition test, pooled human liver microsome, CYP1A2; type: in vitro ADME; settings: O-de-ethylation of 7-ethoxyresorufin
# T2 construct: enzyme: pooled human liver microsome 0.2 mg protein/mL; from tissue; host or cells: pooled human liver microsome
# T2 sequence (P05177 1-516): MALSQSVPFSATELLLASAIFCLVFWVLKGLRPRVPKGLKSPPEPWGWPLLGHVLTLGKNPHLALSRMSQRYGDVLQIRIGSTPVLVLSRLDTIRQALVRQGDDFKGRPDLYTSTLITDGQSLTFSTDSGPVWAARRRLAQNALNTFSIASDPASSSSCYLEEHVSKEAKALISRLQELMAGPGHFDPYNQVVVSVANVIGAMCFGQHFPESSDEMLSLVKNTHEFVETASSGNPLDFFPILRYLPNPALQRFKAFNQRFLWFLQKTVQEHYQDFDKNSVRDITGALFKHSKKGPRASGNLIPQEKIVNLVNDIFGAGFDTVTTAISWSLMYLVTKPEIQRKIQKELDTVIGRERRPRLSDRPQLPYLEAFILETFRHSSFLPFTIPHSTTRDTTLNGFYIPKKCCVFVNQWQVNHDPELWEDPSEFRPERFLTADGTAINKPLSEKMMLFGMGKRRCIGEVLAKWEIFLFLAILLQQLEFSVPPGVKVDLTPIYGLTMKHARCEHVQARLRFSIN
# Excerpt: (§1) O-de-ethylation of 7-ethoxyresorufin (CYP1A2), methyl-hydroxylation of tolbutamide (CYP2C9), 4′-hydroxylation of mephenyloin (CYP2C19), O-demethylation of dextromethorphan (CYP2D6), and hydroxylation of terfenadine (CYP3A4), which are typical substrate for metabolic reactions of human main CYP5 molecular species (CYP1A2, 2C9, 2C19, 2D6, and 3A4), were adopted as indexes.
# (§2) The reaction conditions are as follows: substrate: 0.5 μmol/L of ethoxyresorufin (CYP1A2), 100 μmol/L of tolbutamide (CYP2C9), […] of S-mephenyloin (CYP2C19), 5 μmol/L of dextromethorphan (CYP2D6), and 1 μmol/L of terfenadine (CYP3A4); reaction time; 15 minutes; reaction temperature: 37° C.; enzyme: pooled human liver microsome 0.2 mg protein/mL; test drug concentration: 1, 5, 10, and 20 μmol/L (4 points).
# (§3) In a 96-well plate, as a reaction solution, five kinds of substrates, a human liver microsome, and a test drug were added to 50 mmol/L Hepes buffer solution in the aforementioned ratio. A coenzyme NADPH was added to start a metabolic reaction, which is an index. After reacting at 37° C. for 15 minutes, a solution of methanol/acetonitrile (1/1 (v/v)) was added to quench the reaction. After centrifugation at 3000 rpm for 15 minutes, resorufin (CYP1A2 metabolite) in the supernatant was quantitated with a fluorescence multilabel counter, and hydroxylated tolbutamide (CYP2C9 metabolite), 4′-hydroxylated mephenyloin (CYP2C19 metabolite), […], terfenadine in alcohol form (CYP3A4 metabolite) were quantitated with LC/MS/MS.
# (§4) The case wherein only DMSO (a solvent which dissolved a drug) was added to a reaction system was defined as a control (100%). When a test drug solution was added, the remaining activity (%) at each concentration was calculated, and then IC50 was calculated with a concentration and an inhibition ratio by an inverse estimation using a logistic model.
# CYP2C9 = biological target: T3, CYP2C9 (Homo sapiens, UniProt P11712); assay: CYP inhibition test, pooled human liver microsome, CYP2C9; type: in vitro ADME; settings: methyl-hydroxylation of tolbutamide
# T3 construct: enzyme: pooled human liver microsome 0.2 mg protein/mL; from tissue; host or cells: pooled human liver microsome
# T3 sequence (P11712 whole entry): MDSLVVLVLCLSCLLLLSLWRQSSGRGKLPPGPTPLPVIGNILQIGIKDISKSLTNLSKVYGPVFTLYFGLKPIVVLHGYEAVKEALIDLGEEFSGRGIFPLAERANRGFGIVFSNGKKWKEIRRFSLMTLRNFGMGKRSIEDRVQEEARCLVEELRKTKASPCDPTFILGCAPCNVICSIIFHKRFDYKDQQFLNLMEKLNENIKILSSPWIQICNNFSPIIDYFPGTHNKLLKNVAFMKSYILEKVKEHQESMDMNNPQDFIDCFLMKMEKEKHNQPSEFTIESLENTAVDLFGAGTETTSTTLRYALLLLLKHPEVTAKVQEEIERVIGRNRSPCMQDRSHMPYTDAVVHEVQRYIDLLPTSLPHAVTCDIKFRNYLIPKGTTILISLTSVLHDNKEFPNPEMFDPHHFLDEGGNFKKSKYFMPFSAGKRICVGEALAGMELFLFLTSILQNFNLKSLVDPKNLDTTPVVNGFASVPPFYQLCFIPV
# Excerpt: as §1, §2, §3, §4
# CYP2C19 = biological target: T4, CYP2C19 (Homo sapiens, UniProt P33261); assay: CYP inhibition test, pooled human liver microsome, CYP2C19; type: in vitro ADME; settings: 4′-hydroxylation of mephenyloin
# T4 construct: enzyme: pooled human liver microsome 0.2 mg protein/mL; from tissue; host or cells: pooled human liver microsome
# T4 sequence (P33261 whole entry): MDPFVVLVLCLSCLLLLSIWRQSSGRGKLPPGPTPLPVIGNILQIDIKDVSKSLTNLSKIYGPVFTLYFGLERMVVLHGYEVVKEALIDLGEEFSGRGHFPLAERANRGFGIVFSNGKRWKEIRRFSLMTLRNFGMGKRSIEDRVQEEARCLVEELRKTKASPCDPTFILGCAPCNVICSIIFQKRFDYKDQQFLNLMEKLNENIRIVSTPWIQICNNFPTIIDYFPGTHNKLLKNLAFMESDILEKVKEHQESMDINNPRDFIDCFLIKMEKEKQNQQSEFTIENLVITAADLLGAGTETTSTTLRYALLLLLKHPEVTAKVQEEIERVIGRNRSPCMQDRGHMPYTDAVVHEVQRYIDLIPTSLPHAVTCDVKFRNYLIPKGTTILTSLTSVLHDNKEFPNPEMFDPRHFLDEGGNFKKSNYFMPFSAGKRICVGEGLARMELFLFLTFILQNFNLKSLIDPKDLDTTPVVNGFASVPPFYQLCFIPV
# Excerpt: as §1, §2, §3, §4
# CYP2D6 = biological target: T5, CYP2D6 (Homo sapiens, UniProt P10635); assay: CYP inhibition test, pooled human liver microsome, CYP2D6; type: in vitro ADME; settings: O-demethylation of dextromethorphan
# T5 construct: enzyme: pooled human liver microsome 0.2 mg protein/mL; from tissue; host or cells: pooled human liver microsome
# T5 sequence (P10635 whole entry): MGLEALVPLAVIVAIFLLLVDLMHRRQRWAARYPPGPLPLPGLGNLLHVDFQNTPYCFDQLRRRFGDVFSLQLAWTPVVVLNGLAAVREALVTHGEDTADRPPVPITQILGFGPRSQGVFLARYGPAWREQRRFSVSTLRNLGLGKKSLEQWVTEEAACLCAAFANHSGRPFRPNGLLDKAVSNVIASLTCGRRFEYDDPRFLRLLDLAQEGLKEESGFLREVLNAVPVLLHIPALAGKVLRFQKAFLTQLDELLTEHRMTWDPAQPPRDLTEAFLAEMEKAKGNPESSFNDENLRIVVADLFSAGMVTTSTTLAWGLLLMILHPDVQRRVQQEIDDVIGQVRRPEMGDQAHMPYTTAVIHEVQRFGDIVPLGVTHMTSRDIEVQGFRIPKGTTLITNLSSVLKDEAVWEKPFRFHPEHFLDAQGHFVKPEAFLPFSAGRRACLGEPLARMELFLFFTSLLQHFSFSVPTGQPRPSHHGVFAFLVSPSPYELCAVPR
# Excerpt: as §1, §2, §3, §4
# CYP3A4 = biological target: T6, CYP3A4 (Homo sapiens, UniProt P08684); assay: CYP inhibition test, pooled human liver microsome, CYP3A4; type: in vitro ADME; settings: hydroxylation of terfenadine
# T6 construct: enzyme: pooled human liver microsome 0.2 mg protein/mL; from tissue; host or cells: pooled human liver microsome
# T6 sequence (P08684 whole entry): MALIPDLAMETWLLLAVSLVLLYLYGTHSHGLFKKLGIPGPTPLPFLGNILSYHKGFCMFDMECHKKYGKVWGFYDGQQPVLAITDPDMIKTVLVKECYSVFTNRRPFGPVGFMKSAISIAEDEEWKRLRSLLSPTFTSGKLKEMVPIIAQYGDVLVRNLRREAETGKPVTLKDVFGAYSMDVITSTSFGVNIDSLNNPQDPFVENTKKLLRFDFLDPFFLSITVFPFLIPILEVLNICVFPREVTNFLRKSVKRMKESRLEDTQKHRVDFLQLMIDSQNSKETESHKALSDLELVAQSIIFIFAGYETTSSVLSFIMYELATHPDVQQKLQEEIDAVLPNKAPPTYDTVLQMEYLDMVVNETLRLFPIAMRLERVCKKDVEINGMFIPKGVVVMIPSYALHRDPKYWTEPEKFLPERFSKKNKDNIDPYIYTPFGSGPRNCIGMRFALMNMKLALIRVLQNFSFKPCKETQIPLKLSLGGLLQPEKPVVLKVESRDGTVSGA
# Excerpt: as §1, §2, §3, §4
# Solubility test = type: physicochemical; settings: kinetic from dmso stock; artificial intestinal juice pH 6.8, 1% DMSO, 25° C. for 16 hours
# How it was run: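 Kinetic solubility with 1% DMSO: compound from 10 mmol/L DMSO stock spiked into pH 6.8 phosphate artificial intestinal juice, held 16 h at 25 °C, then suction-filtered. Filtrate diluted twofold in methanol/water (1/1) and quantified by HPLC or LC/MS/MS via absolute calibration.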
# [3] = biological target: T7, human ether-a-go-go related gene (hERG) channel (Homo sapiens, UniProt Q12809); assay: hERG test, whole-cell patch-clamp; type: cell-based; settings: HEK293 cell expressing hERG; applied for 10 minutes; concentration not given
# T7 construct: expressed in transfected cells; host or cells: HEK293
# T7 sequence (Q12809 whole entry): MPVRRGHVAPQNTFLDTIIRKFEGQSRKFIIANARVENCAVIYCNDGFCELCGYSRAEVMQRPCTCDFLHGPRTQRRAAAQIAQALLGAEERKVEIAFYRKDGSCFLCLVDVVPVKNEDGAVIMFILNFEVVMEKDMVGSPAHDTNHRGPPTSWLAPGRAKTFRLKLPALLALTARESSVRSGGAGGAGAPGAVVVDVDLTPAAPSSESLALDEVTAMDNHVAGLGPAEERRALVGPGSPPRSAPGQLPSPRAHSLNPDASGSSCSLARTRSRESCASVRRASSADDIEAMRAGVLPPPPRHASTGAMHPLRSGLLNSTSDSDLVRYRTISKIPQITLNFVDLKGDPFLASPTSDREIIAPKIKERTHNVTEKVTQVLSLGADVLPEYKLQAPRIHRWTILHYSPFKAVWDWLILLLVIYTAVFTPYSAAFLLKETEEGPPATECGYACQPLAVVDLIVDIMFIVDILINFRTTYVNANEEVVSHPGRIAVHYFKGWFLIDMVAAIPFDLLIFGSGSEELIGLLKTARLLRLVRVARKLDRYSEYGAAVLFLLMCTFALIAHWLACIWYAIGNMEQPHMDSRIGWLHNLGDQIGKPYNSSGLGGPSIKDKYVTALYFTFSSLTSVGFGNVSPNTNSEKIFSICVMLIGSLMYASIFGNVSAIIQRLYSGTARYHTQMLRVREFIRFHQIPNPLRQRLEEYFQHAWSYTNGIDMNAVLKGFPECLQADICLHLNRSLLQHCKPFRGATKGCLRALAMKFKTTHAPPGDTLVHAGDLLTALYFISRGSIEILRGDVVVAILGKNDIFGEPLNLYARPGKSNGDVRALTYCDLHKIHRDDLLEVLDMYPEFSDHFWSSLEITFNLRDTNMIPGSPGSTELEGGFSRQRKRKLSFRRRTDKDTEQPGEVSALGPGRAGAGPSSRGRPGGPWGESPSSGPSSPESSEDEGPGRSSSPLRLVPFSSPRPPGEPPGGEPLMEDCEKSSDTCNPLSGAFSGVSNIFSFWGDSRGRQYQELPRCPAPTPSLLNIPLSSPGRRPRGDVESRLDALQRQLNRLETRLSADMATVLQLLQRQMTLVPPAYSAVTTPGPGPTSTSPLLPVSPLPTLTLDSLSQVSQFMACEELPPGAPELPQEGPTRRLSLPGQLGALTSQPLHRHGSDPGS
# Excerpt: For the purpose of risk evaluation of QT interval extension of electrocardiogram, the activity on delayed rectification K^+ current (IKr), which plays an important role in a cardiac ventricle repolarization process, was examined using the HEK293 cell that was made to express human ether-a-go-go related gene (hERG) channel.
# Using an automatic patch-clamp system (PatchXpress 7000A, Axon Instruments Inc.), by a whole-cell patch-clamp method, after the cell was maintained at a membrane potential of −80 mV, IKr induced upon applying depolarizing stimulation of +50 mV for 2 seconds and further applying repolarizing stimulation of −50 mV for 2 seconds was recorded. After generated electric current became stable, a test substance dissolved at an intended concentration in extracellular fluid (137 mmol/L NaCl, 4 mmol/L KCl, 1.8 mmol/L CaCl2.2H2O, 1 mmol/L MgCl2.6H2O, 10 mmol/L glucose, 10 mmol/L HEPES (4-(2-hydroxyethyl)-1-piperazineethanesulfonic acid), pH=7.4) was applied to the cell for 10 minutes under room temperature condition. From the obtained IKr, the absolute value of the maximum tail current was measured using analysis software (DataXpress ver. 1, Molecular Devices Corporation) and the value of the electric current in a maintained membrane potential as baseline. Moreover, an inhibition ratio for the maximum tail current prior to the application of the test substance was calculated and then compared with a group of media-application (0.1% dimethylsulfoxide solution) to evaluate influence of the test substance on IKr.
# PI-3 kinase γ [4] = biological target: T1, PI-3 kinase γ; assay: PI3Kγ inhibitory activity (Ki value), HTRF; type: biochemical; settings: Ki=IC50/(1+10 μM ATP/Km)
# Description: The PI3Kγ inhibitory activity (Ki value) of a compound was evaluated according to the following procedure:
# 5 μL of a compound solution containing 10% DMSO and 200 μmol/L of a compound was changed to 5 μL of a compound solution containing 10% DMSO and either 200, 64, 20, 6.4, 2, 0.64, or 0.20 μmol/L of the compound (optionally, this is diluted to a lower concentration). Using a method similar to the method for measuring PI3Kγ inhibitory activity, inhibition ratios were measured in the presence of the compound at 50, 16, 5, 1.6, 0.5, 0.16, and 0.05 μmol/L (optionally, a lower concentration). Then an IC50 value was calculated by a logistic approximation method or the linear regression method using two concentrations that across 50% inhibition. Separately, the ATP concentration in the reaction solution (40 μmol/L ATP, 10 mmol/L MgCl2, 5 mmol/L DTT) at the time of the start of a reaction in the absence of the compound was changed to 80, 40, 20, 10, 5, 2.5, 1.25, or 0.625 μmol/L. Then, HTRF ratios were measured by a similar method. The value obtained by subtracting the HTRF ratio at each ATP concentration from the HTRF ratio in the absence of PI-3 kinase γ was defined as the value obtained by multiplying reaction rate (v) at each ATP concentration with a constant. The Michaelis-Menten constant Km was then calculated by the Lineweaver-Burk plot method. The Ki value of a compound was calculated by the following formula.
# Ki=IC50 value/(1+10 μM (test ATP concentration)/Km (μM))
# Metabolic stability test = type: in vitro ADME; settings: human liver microsome 0.5 mg protein/mL, 1 mmol/L NADPH, 37° C.
# How it was run: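 Pooled human liver microsomes (0.5 mg protein/mL) incubated with compound and 1 mmol/L NADPH at 37° C. in pH 7.4 Tris buffer for 0 or 30 min. Parent quantified by LC/MS/MS after methanol/acetonitrile quench; value is % remaining at 30 min versus 0 min.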
# 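For percentage of the test compound remained after reacting for 30 minutes in this document: 100% equals the compound amount at 0 min reaction.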
# T1 sequence (P48736 whole entry): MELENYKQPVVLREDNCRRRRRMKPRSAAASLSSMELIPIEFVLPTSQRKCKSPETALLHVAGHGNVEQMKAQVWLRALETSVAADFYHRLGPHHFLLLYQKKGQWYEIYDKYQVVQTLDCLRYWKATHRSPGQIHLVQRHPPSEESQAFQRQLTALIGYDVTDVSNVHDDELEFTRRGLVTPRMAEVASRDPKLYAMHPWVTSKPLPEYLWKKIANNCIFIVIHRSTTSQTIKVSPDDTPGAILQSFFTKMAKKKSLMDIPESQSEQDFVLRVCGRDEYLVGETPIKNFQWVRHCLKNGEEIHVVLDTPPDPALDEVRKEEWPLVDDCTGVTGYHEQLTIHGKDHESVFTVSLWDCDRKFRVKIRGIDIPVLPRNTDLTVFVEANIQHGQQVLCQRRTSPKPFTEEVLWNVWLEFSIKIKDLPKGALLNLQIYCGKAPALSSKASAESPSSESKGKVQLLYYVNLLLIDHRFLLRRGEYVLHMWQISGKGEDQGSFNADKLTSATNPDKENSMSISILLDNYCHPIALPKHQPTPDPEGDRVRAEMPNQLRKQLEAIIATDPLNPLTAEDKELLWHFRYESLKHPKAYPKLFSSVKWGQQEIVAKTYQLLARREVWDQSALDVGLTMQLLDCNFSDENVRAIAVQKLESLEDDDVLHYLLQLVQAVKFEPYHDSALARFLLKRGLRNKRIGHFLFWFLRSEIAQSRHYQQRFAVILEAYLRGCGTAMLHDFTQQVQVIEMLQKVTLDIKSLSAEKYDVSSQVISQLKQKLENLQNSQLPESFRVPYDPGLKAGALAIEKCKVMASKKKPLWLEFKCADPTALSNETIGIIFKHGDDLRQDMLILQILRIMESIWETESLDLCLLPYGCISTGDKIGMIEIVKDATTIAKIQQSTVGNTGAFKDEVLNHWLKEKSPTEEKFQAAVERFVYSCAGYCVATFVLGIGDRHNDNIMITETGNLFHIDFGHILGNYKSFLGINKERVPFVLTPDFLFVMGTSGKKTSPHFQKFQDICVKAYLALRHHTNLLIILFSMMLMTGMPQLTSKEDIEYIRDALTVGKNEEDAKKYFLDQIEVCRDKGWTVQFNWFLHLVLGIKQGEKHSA
structure (smiles),measurement,setting,value
CNC(=O)Nc1cc2n(n1)CCN2c1cc(Br)cc(C(=O)N2CCCC2)c1 [Compound I-181],inhibition at 50 µM,PI-3 kinase γ [1]; PI3Kγ,≥ 95%
same,mutagenicity (FAT test),[2],(−)
CNC(=O)Nc1cc2n(n1)CCN2c1cc(Br)cc(C(=O)N2CCNCC2)c1 [Compound I-185],inhibition at 50 µM,PI-3 kinase γ [1]; PI3Kγ,≥ 95%
same,IC50,CYP1A2,> 20 µM
same,IC50,CYP2C9,> 20 µM
same,IC50,CYP2C19,> 20 µM
same,IC50,CYP2D6,> 20 µM
same,IC50,CYP3A4,> 20 µM
same,solubility at 16 h,Solubility test,> 50 µM
same,inhibition ratio for the maximum tail current (IKr),[3],8.3%
COc1cc(N2CCc3nc(NC(=O)Nc4ccccc4)sc3C2)nc(OC)n1 [Compound I-203],inhibition at 50 µM,PI-3 kinase γ [1]; PI3Kγ,95%
same,mutagenicity (FAT test),[2],(−)
COc1cc(N2CCc3nc(NC(=O)NCCC(=O)O)sc3C2)nc(OC)n1.Cl.Cl [Compound I-262],inhibition at 10 µM,"PI-3 kinase γ [1]; PI3Kγ, compound at 10 μM",≥ 95%
same,Ki,PI-3 kinase γ [4],0.047 µM
same,solubility at 16 h,Solubility test,> 50 µM
same,percentage of the test compound remained after reacting for 30 minutes,Metabolic stability test,92.8%
same,inhibition ratio for the maximum tail current (IKr),[3],1.6%
CNC(=O)Nc1nc2c(s1)CN(c1nc(OC)nc(OC)n1)CC2 [Compound I-327],inhibition at 10 µM,PI-3 kinase γ [1]; compound at 10 μmol/L,84%
same,mutagenicity (FAT test),[2],(−)
CC(C)Oc1cc(C(=O)Nc2cc3n(n2)CCN3c2ccc3c(c2)CCN(C)C3=O)on1 [Compound I-403],inhibition at 10 µM,PI-3 kinase γ [1]; compound at 10 μmol/L,≥ 95%
same,mutagenicity (FAT test),[2],(−)
